Measured values taken from PMC9963121, “Development of Combretastatin A-4 Analogues as Potential Anticancer Agents with Improved Aqueous Solubility” (Molecules, 2023).

Legend:
AGS gastric cancer cell = test: MTT cell growth inhibition assay, AGS gastric cancer cells; type: cell-based; settings: Homo sapiens, mean ± SD of three experiments
Source text: (§1) Initially, we designed and synthesised seven compounds—9a and 12a1–12a6—and evaluated the anticancer activity and aqueous solubility. We evaluated the cytotoxic effects of these stilbene nitrile analogues against a panel of four human cancer cell lines (HCT-116, BEL-7402, MCF-7 and AGS) and two human non-cancerous normal cell lines (L-02 and MCF-10A), using CA-4 as a control. The compounds were screened for aqueous solubility in 0.01 M PBS using a high throughput UV method. […] It is possible that the size of the nitrogen heterocycle had little effect on the activity of these compounds. […] The aqueous solubility of all the compounds 12a1–12a6 was higher than that of 9a, particularly that of 12a1 and 12a2 containing piperazine rings. […] Of the six compounds with improved aqueous solubility, 12a1 had the best activity.
(§2) All human cell lines were used in this study. AGS gastric cancer cell, BEL-7402 liver cancer cell, HCT-116 colorectal cancer cell, L-02 normal liver cell, MCF-7 breast cancer cell, and MCF-10A normal breast cell were initially purchased from American Type Culture Collection (ATCC, Manassas, VA, USA). RPMI-1640 media, DMEM and FBS, were provided by Gibco Company. The cells were maintained in DMEM or RPMI-1640, supplemented with 10% FBS, 100 IU/mL penicillin and […] streptomycin, and at 37 °C in a humidified atmosphere containing 5% CO2.
(§3) The experiment was carried out according to the method of reference.

MCF-7 breast cancer cell = test: MTT cell growth inhibition assay, MCF-7 breast cancer cells; type: cell-based; settings: Homo sapiens, MCF7, mean ± SD of three experiments
Source text: as §1, §2, §3

[1] = tested on: HCT-116 colorectal cancer cell; test: MTT cell growth inhibition assay, HCT-116 colorectal cancer cells; type: cell-based, human; settings: for IC50: Homo sapiens, HCT-116, MTT, mean ± SD of three experiments
Source text: as §1, §2, §3

[2] = tested on: BEL-7402 liver cancer cell; test: MTT cell growth inhibition assay, BEL-7402 liver cancer cells; type: cell-based; settings: Homo sapiens, mean ± SD of three experiments, read-out: IC50 BEL-7402 Hepatoma Cells
Source text: as §1, §2, §3

[3] = tested on: MCF-10A normal breast cell; test: MTT cell growth inhibition assay, MCF-10A normal breast cells; type: cell-based; settings: Homo sapiens, mean ± SD of three experiments, read-out: IC50 MCF-10A Normal Breast Epithelial Cells
Source text: as §1, §2, §3

L-02 normal liver cell = test: MTT cell growth inhibition assay, L-02 normal liver cells; type: cell-based; settings: Homo sapiens, mean ± SD of three experiments
Source text: as §1, §2, §3

[4] = Aqueous solubility in 0.01 M PBS, high throughput UV method; type: physicochemical; settings: for Water solubility (in words): Figure 1; for solubility thermodynamic at 1.5 h: aqueous phosphate buffer, aqueous buffer, sodium phosphate buffer 0.01 M, pH 7.4, 22 ± 2 °C, mean ± SD
Source text: as §1
The aqueous solubility was determined as a previously reported procedure. Put simply, a certain amount of powdered compound was placed in a 2 mL centrifuge tube and mixed with an appropriate volume of aqueous phosphate buffer (10 mM, pH 7.4) to make the whole system supersaturated. The mixtures were sonicated (KQ5200DE numerical control ultrasonic cleaner, Kunshan Ultrasonic Instrument Co., Ltd., SuZhou, China) for 20 min. After sonication, the mixture was allowed to equilibrate at RT (22 ± 2 °C) for 1.5 h with vortex shaking (1200 rpm). Then centrifuged at 3000 rpm for 15 min (1-14k, sigma, Darmstadt, Germany), the supernatant was filtered with a 0.22 µM filter membrane. And then, take 150 µL of filtrate and add it to 96-well UV plate with triplicate. Draw 150 μL of blank solution was added into plate as blank control. The 96-well UV plate prepared above was read on a Synergy HTX Multifunctional Microplate Reader (BioTek, Vermont, USA) at 294 nm. The absorbance of the sample was corrected according to the UV response of the sample and blank solution, and the corrected UV response values were used for solubility calculations by bringing into the standard curve of the compound. […]
1.5. Solubility Assessment
The aqueous solubility was determined as previously reported using the high throughput solubility screens procedure published by Bruno Bard et al [9. 10]. Put simply, a certain amount of powdered compound was placed in a 2 ml centrifuge tube and mixed with an appropriate volume of aqueous phosphate buffer (0.01 M, pH 7.4) to make the whole system supersaturated. The mixtures were sonicated (KQ5200DE numerical control ultrasonic cleaner, Kunshan Ultrasonic Instrument Co., Ltd., China) for 20 min. After sonication, the mixture was allowed to equilibrate at room temperature (22 ± 2°C) for 1.5 h with vortex shaking (1200 rpm). Then the centrifuge tube was put into the centrifuge (1-14k, sigma, Germany), centrifuged with 3000 rpm for 15 minutes, 0.22 µM filter membrane filtration supernatant, then take 150 µl filtrate and add it to 96-well UV plate, with three well for each compound. Draw 150 μL blank solution were added into 96 well-plate as blank control. The 96-well UV […]
plate prepared above was read on a SynergyHTX Multifunctional microplate reader (BioTek, USA) at 338 nm (compounds 12a-12d and 15-20) or 370 nm (compounds 9a-d). The absorbance of the sample was corrected according to the UV response of the sample and blank solution, and the corrected UV responses value were used for solubility calculations by bring into the standard curve of the compound. […]

[5] = Compound stability in rat plasma, HPLC; type: in vitro ADME; settings: 37 °C
Experimental: Blood was collected from SD rats (200–250 g, male and female, Animal Experimental Center of Yanbian University) into heparin tubes, and supernatant plasma was collected after centrifugation.
A certain amount of 9a and 12a1 were accurately weighed and mixed with rat plasma. After incubation at 37 ℃ for 0, 6, 12, 24 and 36 h, the plasma samples were treated with methanol and analyzed by HPLC to determine their stability in plasma.
A HITACHI Primaide HPLC liquid chromatography system was equipped and used for all analyses. Chromatographic separation was performed on a Welch Ultimate XB-C18 column (3.9 mm × 150 mm, 5 μm; Welch, China). The analytes were eluted using a gradient method with a flow rate of 1 mL/min. Mobile phase A was Ultra pure water, and mobile phase B was methanol according to the following gradient: (1) The gradient elution conditions of 9a: 0 to 8 min, 55% to 67% B; 8.1 to 15 min, 67% to 90% B; 15.1 to 25 min, 55% B. (2) The gradient elution conditions of 12a1: 0 to 9 min, 55% to 65% B; 9.1 to 12 min, 65% to 75% B; 12.1 to 15 min, 75% to 85% B; 15.1 to 20 min, 90% B; 20.1 to 30 min, 55% B. The injection volume was 3 μL. The column temperature was set at 40 °C. […]
1.6. Plasma stability assessment
Prepare plasma:blood was collected from SD rats (200-250g, male and female, Animal Experimental Center of Yanbian University) into heparin tubes, and supernatant plasma was collected after centrifugation.
A certain amount of 9a and 12a1 were accurately weighed and mixed with rat plasma.
After incubation at 37℃ for 0 h, 6 h, 12 h, 24 h and 36 h, the plasma samples were treated with methanol and analyzed by HPLC to determine their stability in plasma.
Analytical instrument and conditions:
A HITACHI Primaide HPLC liquid chromatography system equipped was used for all analyses. Chromatographic separation was performed on a Welch Ultimate XB-C18 column (3.9 mm × 150 mm, 5 μm; Welch, China). The analytes were eluted using a gradient method with a flow rate of 1 mL/min. Mobile phase A was Ultra pure water, and mobile phase B was methanol according to the following gradient: (1). The gradient elution conditions of 9a: 0 to 8 minutes, 55% to 67% B; 8.1 to 15 minutes, 67% to 90% B; 15.1 to 25 minutes, 55% B. (2). The gradient elution conditions of […]

[6] = design: method as in earlier work; settings: cited from earlier work
[7] = Configuration (cis/trans) stability; settings: Figure 1; cis/trans olefin configuration
Source text: This vascular disrupting activity causes the tumor tissue vascular collapse, cutting down the oxygen and nutrient supply to tumor cells, leading to tumor cell death.
(compound 2, Figure 1). Still, the methyl group is difficult to modify chemically. […] Lipinski proposed the theory of the “Rule of 5” in 1997 [19], which is used to evaluate the pharmacokinetic characteristics of small molecule drugs.

[8] = design: method as in PMID 12067983, PMID 12807934, PMID 14645433; settings: clinical data, intravenous CA-4P; cited from earlier work

Row | IC50 [2] | Aqueous solubility relative to CA-4 ([4]; ratio to CA-4) | Improvement in aqueous solubility over compound 2 ([4]; ratio to compound 2) | Decrease of HPLC peak area in rat plasma ([5]; within 36 h, UV 294 nm) | Plasma stability (in words) ([5]; rat plasma, 24 h) | SMILES | IC50 (AGS gastric cancer cell) | IC50 (MCF-7 breast cancer cell) | IC50 [1] | Selectivity for HCT-116 cancer cells over L-02 normal cells ([1]; ratio of IC50 values L-02 / HCT-116) | Activity against HCT-116 relative to CA-4 ([1]; ratio to CA-4) | IC50 [3] | IC50 (L-02 normal liver cell) | Water solubility (in words) [4] | solubility thermodynamic at 1.5 h [4] | Rat Plasma Protein Binding Rate [6] | Configuration stability (in words) [7] | half-life [8]
1 | 140 ± 10 nM | five times lower | two-fold | approximately 33% | retained plasma stability over 24 h | COc1cc(/C(C#N)=C/c2ccc(N)cc2)cc(OC)c1OC [9a, (Z)-3-(4-aminophenyl)-2-(3,4,5-trimethoxyphenyl)acrylonitrile] | 120 ± 10 nM | 4820 ± 1570 nM | 20 ± 10 nM | 1000 times | eight times higher | > 100000 nM | 20700 ± 3390 nM | Poor water solubility | 10.8 ± 0.7 µg/mL |  |  | 
2 |  |  |  |  |  | COc1ccc(/C=C\c2cc(OC)c(OC)c(OC)c2)cc1O [CA-4, Combretastatin A-4] | 3420 ± 30 nM | 220 ± 90 nM | 160 nM |  |  |  | 1100 ± 30 nM | Poor water solubility | 57.7 µg/mL | 72.3 ± 6.9% |  | 
3 |  |  |  |  |  | COc1ccc(/C=C\c2cc(OC)c(OC)c(OC)c2)cc1OP(=O)([O-])[O-].[Na+].[Na+] [CA-4P, reference compound] |  |  | 590 ± 220 nM |  |  |  |  | Good water solubility |  |  | Configuration instability | about 30 min
